Assay results reported in patent US7459284B2, “Chemiluminescent acridinium compounds and analogues thereof as substrates of hydrolytic enzymes” (Siemens Healthcare Diagnostics Inc., priority 1999, dated 2008).
Where a name gives a salt, the structure may show the parent alone. Read-outs that look alike come from different tables or passages of the source.

Legend:
[1] = Light emission spectra by Fast Spectral Scanning System (FSSS); assay type: physicochemical
Experimental: The light emission spectra of compounds 1˜12 and 15˜18 were determined by a Fast Spectral Scanning System (FSSS) of Photo Research (a division of Kollmorgen Corp.) of Burbank, Calif., U.S.A. The experiment was carried out in a dark room. Each compound was dissolved in acetonitrile or N,N-dimethylformamide. The resulting concentrate was diluted with the same solvent to form the working solution, which upon flashing gave a light emission with an adequate intensity. A typical experiment utilized 10˜100 μg or more of the sample in 500 μl of the solvent contained in a 13×100 mm borosilicate test tube. The tube was placed on a test tube rack raised to a proper height. A piece of aluminum foil was placed on the back of the tube to enhance the detectability of the emitted light. The FSSS optical head was placed in front of the tube at an approximate distance of about 130 mm with its lens focused on the liquid in the tube. The sample solution was first treated with 0.35 ml of the Flashing Reagent #1 (Bayer Diagnostics) containing 0.1 N HNO3 and 0.5% H2O2. The room was then darkened, and 0.35 ml of the Flashing Reagent #2 (Bayer Diagnostics) containing 0.25 N NaOH and 0.5% ARQUAD was added to the reaction mixture immediately. (See U.S. Pat. No. 4,927,769, which is commonly assigned and incorporated herein by reference.) The light which was generated instantaneously following the addition of the Reagent #2 was recorded by FSSS for 5 seconds starting from about one second before the Reagent #2 was added.

[2] = biological target: T1, alkaline phosphatase (Bos taurus, UniProt P19111); experiment: Enzymatic conversion of substrate by alkaline phosphatase (HPLC analysis); assay type: biochemical; conditions: alkaline aqueous medium; about 1 hour
T1 sequence (P19111 20-506): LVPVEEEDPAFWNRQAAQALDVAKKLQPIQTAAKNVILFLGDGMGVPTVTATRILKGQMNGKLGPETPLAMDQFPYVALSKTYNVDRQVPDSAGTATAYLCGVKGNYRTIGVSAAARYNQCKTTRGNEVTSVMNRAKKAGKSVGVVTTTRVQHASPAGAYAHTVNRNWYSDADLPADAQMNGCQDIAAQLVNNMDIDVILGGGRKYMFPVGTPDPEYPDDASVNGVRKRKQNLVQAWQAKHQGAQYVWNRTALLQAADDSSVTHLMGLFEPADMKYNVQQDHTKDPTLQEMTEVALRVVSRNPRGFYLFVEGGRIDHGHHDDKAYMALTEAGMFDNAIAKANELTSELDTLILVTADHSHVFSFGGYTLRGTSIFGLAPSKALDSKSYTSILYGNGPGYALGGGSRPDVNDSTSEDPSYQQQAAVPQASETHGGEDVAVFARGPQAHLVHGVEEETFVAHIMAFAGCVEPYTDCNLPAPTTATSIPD
Experimental: A 1 mM DMF solution of the acridinium 3-enol-phosphate (13) was mixed with 150 μL of 100 mM Tris pH 9 also containing 1 mM MgCl2. Alkaline phosphatase (5 μl of a 2 mg/ml solution) was added and the reaction was incubated at room temperature for ˜1 hour. […] The product was isolated by semi-preparative HPLC using a 7.8×300 mm, C18 column. MALDI-TOF MS of the product indicated this was indeed the keto product (14): m/z 521.36 obs. (520.56 calc.).
A 20 μL DMF solution of the acridan (15) (1.7 mM) was combined with 180 μl of 0.15 M 2-amino-2-methyl-1-propanol pH 10.3 also containing 1 mM magnesium acetate. A clear blue solution was obtained (0.17 mM substrate), which was then treated with alkaline phosphatase (10^−10 moles). The blue color was discharged instantly. […] The reaction mixture was then evaluated by the FSSS to determine the light emission spectrum of the product, which is shown in FIG. 2N. The product was isolated by semi-preparative HPLC. […] (521.56 calc.).

[3] = strong alkaline solution; disclosed in WO 00/09487; cited from earlier work
[4] = Quantum yield when flashed with alkaline solution first, then hydrogen peroxide; assay type: physicochemical; conditions: 0.25 N sodium hydroxide with 0.5% AQUARD first, followed by 0.5% hydrogen peroxide
Experimental: More specifically, when a solution of 1 is treated with 0.25 N sodium hydroxide solution containing 0.5% AQUARD, followed by 0.5% hydrogen peroxide, the quantum yield of 1 is lowered by more than 30 fold. […] Thus, to the advantage of better distinction between the signals of certain chemiluminescent products and their substrates, preferably, said alkaline solution contains sodium hydroxide at concentration of 0.01 to 1.0 N, and AQUARD at concentration of 0.01 to 1%, and said hydrogen peroxide solution contains hydrogen peroxide at concentration of 0.001 to 5%. More preferably, said alkaline solution contains 0.25 N sodium hydroxide and 0.5% AQUARD, and said hydrogen peroxide solution contains 0.5% hydrogen peroxide.

[5] = biological target: T1, alkaline phosphatase; experiment: Alkaline phosphatase assay using 2-Phos-DMAE (1) as chemiluminescent substrate; assay type: biochemical; conditions: 0.1 mM substrate, pH 9 Tris, 45° C., 1 hour; R2228P PMT, LL700 filter, 4° C.
Experimental: With one or more of the above approaches combined, several assay systems based on the principle of detecting the long emission signal generated by the action of AP on 2-Phos-DMAE (1) are constructed, and disclosed in the section of Examples. One example (Example 17) consists of the incubation of AP standards in a substrate solution containing 0.1 mM 2-Phos-DMAE (1), 1 mM magnesium chloride in 100 mM, pH 9 Tris buffer at 45° C. for 1 hour. The light outputs were measured on a luminometer equipped with a red-sensitive PMT (R2228P) and a long pass filter (LL700), which is placed in a 4° C. cold room. The sample was treated first with 0.25 N sodium hydroxide solution containing 0.5% AQUARD, immediately followed by 0.5% hydrogen peroxide.
The substrate solution of 2-Phos-DMAE (1) was prepared at 0.1 mM in 100 mM, pH 9.0 Tris buffer containing 1 mM MgCl2. […] The light outputs were measured for 2 seconds on Bayer Diagnostics Magic Lite Analyzer 1 (MLA-1) equipped with R268 PMT and two LL650 long wavelength pass filters (Corion, Lot No. CFS-002645). […]
According to Example 16, an assay of alkaline phosphatase was carried out by adding 5 μl of the AP standard to 95 μl of the substrate solution. […] The light outputs were measured for 2 seconds on MLA-1 equipped with R2228P PMT and a LL700 long wavelength pass filters, and the unit was pre-cooled in a cold room (4° C).

[6] = FSSS, hydrogen peroxide in strong alkaline solution
[7] = spectral region with signal intensity above 5% of peak height, FSSS scanning limit 380-780 nm, flashed with 0.1 N HNO3/0.5% H2O2 then 0.25 N NaOH/0.5% ARQUAD

| Compound | Emission Maximum [1, 6] [nm] | Emission Range [1, 7] | other results |
| --- | --- | --- | --- |
| CN1c2ccccc2C2(Oc3ccccc3OC2=O)c2cc(OP(=O)(O)O)ccc21 (centres unmarked) [Compound 11, 2-Phos-Spiroacridan] | 474 | 430-600 nm |  |
| C[n+]1c2ccccc2c(C(=O)Oc2ccc(O)cc2)c2ccccc21 [Compound 18, 4′-hydroxyphenyl 10-methyl acridinium-9-carboxylate trifluoromethanesulfonate] |  |  | Emission Maximum [1]: 452 nm; Emission Range [1]: 410-540 nm |
| Cc1cc(C(=O)OCc2ccccc2)cc(C)c1OC(=O)c1c2ccccc2[n+](C)c2ccc(OP(=O)(O)O)cc12 [Compound 3, (2′,6′-dimethyl-4′-benzyloxy-carbonyl)phenyl 2-phosphoryloxy-10-methyl-acridinium-9-carboxylate trifluoroacetate] | 474 | 430-600 nm |  |
| C[n+]1c2ccccc2c(C(=O)Oc2ccccc2)c2cc(O)ccc21 [Compound 6, phenyl 2-hydroxy-10-methyl-acridinium-9-carboxylate trifluoromethanesulfonate] |  |  | Emission Maximum [1]: 600 nm; Emission Range [1]: 500-780^ nm |
| COc1ccc2c(c1)c(C(=O)Oc1c(C)cc(C(=O)O)cc1C)c1cc(OP(=O)(O)O)ccc1[n+]2C.[Na+].[Na+] [Compound 9, (2′,6′-dimethyl-4′-carboxyl)phenyl 2-phosphoryloxy-7-methoxy-10-methyl acridinium-9-carboxylate] | 476 | 440-600 nm |  |
| Cc1cc(C(=O)O)cc(C)c1OC(=O)c1c2ccccc2[n+](CCCCS(=O)(=O)[O-])c2ccc(O)cc12 [Compound 8, (2′, 6′-dimethyl-4′-carboxyl)phenyl 2-hydroxy-10-sulfobutyl-acridinium-9-carboxylate] | 594 | 500-780^ nm |  |
| (2′,6′-dimethyl-4′-carboxyl)phenyl 3-(β-phosphoryloxy-4′-hydroxystyryl)-10-methyl acridan [Compound 15] | 678 | 520-780^ nm | conversion by alkaline phosphatase [2]: clean conversion |
| C[n+]1c2ccccc2c(C(=O)Oc2ccccc2)c2cc(OP(=O)(O)O)ccc21 [Compound 5, phenyl 10-methyl-2-Phosphoryloxy-acridinium-9-carboxylate trifluoroacetate] | 478 | 430-600 nm |  |
| Cc1cc(C(=O)O)cc(C)c1OC(=O)c1c2ccccc2[n+](CCCCS(=O)(=O)[O-])c2ccc(OP(=O)(O)O)cc12 [Compound 7, (2′, 6′-dimethyl-4′-carboxyl)phenyl 2-phosphoryloxy-10-sulfobutyl-acridinium-9-carboxylate] | 474 | 430-600 nm |  |
| COc1ccc2c(c1)c(C(=O)Oc1c(C)cc(C(=O)O)cc1C)c1cc(O)ccc1[n+]2C [Compound 10, (2′,6′-dimethyl-4′-carboxyl)phenyl 2-hydroxy-7-methoxy-10-methyl acridinium-9-carboxylate] | 674 | 520-780^ nm | longer emission maxima than unmethoxylated compound 2 ([1]; 2-OH-7-MeO-DMAE vs 2-OH-DMAE): 60-70 nm |
| Cc1cc(C(=O)O)cc(C)c1OC(=O)c1c2ccccc2[n+](C)c2cc(/C(=C/c3ccc(O)cc3)OP(=O)(O)O)ccc12 [Compound 13, (2′,6′-dimethyl-4′-carboxyl)phenyl 3-(β-phosphoryloxy-4′-hydroxystyryl)-10-methyl acridinium-9-carboxylate trifluoromethanesulfonate] |  |  | conversion by alkaline phosphatase [2]: complete conversion |
| Cc1cc(C(=O)O)cc(C)c1OC(=O)c1c2ccccc2[n+](C)c2ccc(O)cc12 [Compound 2, (2′,6′-dimethyl-4′-carboxyl)phenyl 2-hydroxy-10-methyl-acridinium-9-carboxylate trifluoroacetate] | 602 | 500-780^ nm | bathochromic shift of emission maximum ([1]; compound 2 relative to compound 1): 128 nm; emission λmax [3]: 604 nm; lowering of quantum yield [4]: basically not affected |
| Cc1cc(C(=O)O)cc(C)c1OC(=O)c1c2ccccc2[n+](C)c2ccc(OP(=O)(O)O)cc12.[Na+].[Na+] [Compound 1, (2′,6′-dimethyl-4′-carboxyl)phenyl 10-methyl-2-Phosphoryloxy-acridinium-9-carboxylate bromide] | 478 | 430-600 nm | conversion by alkaline phosphatase [2]: excellent substrate; level of alkaline phosphatase detected [5]: below 1×10^−18 mole; lowering of quantum yield [4]: more than 30 fold |
| Cc1cc(C(=O)OCc2ccccc2)cc(C)c1OC(=O)c1c2ccccc2[n+](C)c2ccc(O)cc12 [Compound 4, (2′,6′-dimethyl-4′-benzyl-oxycarbonyl)phenyl 2-hydroxy-10-methyl-acridinium-9-carboxylate trifluoroacetate] | 604 | 500-780^ nm |  |
